Results as given in patent US12344600B2, “c-Myc mRNA translation modulators and uses thereof in the treatment of cancer” (Anima Biotech Inc., priority 2022, dated 2025).

What follows are molecules tested on c-Myc (assay: c-Myc immunofluorescence assay). Settings: A549 cells, 24 hours, anti-c-Myc immunofluorescence.
Assay type: cell-based, human
How it was run: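 Read-out is imaged c-Myc immunofluorescence, nucleus-segmented, in A549 lung carcinoma cells exposed to compound dose series for 24 h after 48 h growth. Fixation 4% paraformaldehyde, Triton permeabilization, antibody staining at room temperature; EC50 from logistic fit of signal versus concentration.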

Row | Compound | Myc Efficacy (−LogEC50)
1 | COc1ccc(-c2noc(N3CCC(C(=O)NCC4CCN(C[C@@H]5CCCNC5)C4)CC3)n2)cc1 (stereo partly drawn) [Compound 412, 1-(3-(4-methoxyphenyl)-1,2,4-oxadiazol-5-yl)-N-((1-(((R)-piperidin-3-yl)methyl)pyrrolidin-3-yl)methyl)piperidine-4-carboxamide] | − (− ≤3)
2 | COc1ccc(-c2noc(N3CCC(C(=O)NCC4CCN(C[C@H]5CCN5)C4)CC3)n2)cc1 (stereo partly drawn) [Compound 413, N-((1-(((R)-azetidin-2-yl)methyl)pyrrolidin-3-yl)methyl)-1-(3-(4-methoxyphenyl)-1,2,4-oxadiazol-5-yl)piperidine-4-carboxamide] | − (− ≤3)
3 | COc1ccc(-c2noc(N3CCC(C(=O)NCC4CCN(C[C@H]5CCCCN5C)C4)CC3)n2)cc1 (stereo partly drawn) [Compound 414, 1-(3-(4-methoxyphenyl)-1,2,4-oxadiazol-5-yl)-N-((1-(((R)-1-methylpiperidin-2-yl)methyl)pyrrolidin-3-yl)methyl)piperidine-4-carboxamide] | + (+ >3 and <5)
4 | COc1ccc(-c2noc(N3CCC(C(=O)NCC4CCN(C[C@H]5CCCCN5)C4)CC3)n2)cc1 (stereo partly drawn) [Compound 415, 1-(3-(4-methoxyphenyl)-1,2,4-oxadiazol-5-yl)-N-((1-(((R)-piperidin-2-yl)methyl)pyrrolidin-3-yl)methyl)piperidine-4-carboxamide] | + (+ >3 and <5)
5 | COc1ccc(-c2noc(N3CCC(C(=O)NCC4CCN(C(C)C5CCOCC5)C4)CC3)n2)cc1 (stereo not shown) [Compound 416, 1-(3-(4-methoxyphenyl)-1,2,4-oxadiazol-5-yl)-N-((1-(1-(tetrahydro-2H-pyran-4-yl)ethyl)pyrrolidin-3-yl)methyl)piperidine-4-carboxamide] | + (+ >3 and <5)
6 | COc1ccc(-c2noc(N3CCN(C(=O)NCc4cc5ccccc5[nH]4)CC3)n2)cc1 [Compound 417, N-((1H-indol-2-yl)methyl)-4-(3-(4-methoxyphenyl)-1,2,4-oxadiazol-5-yl)piperazine-1-carboxamide] | ++ (++ ≥5 and <6)
7 | COc1ccc(-c2noc(N3CCC(C(=O)NCc4cc5cccnc5[nH]4)CC3)n2)cc1 [Compound 418, N-((1H-pyrrolo[2,3-b]pyridin-2-yl)methyl)-1-(3-(4-methoxyphenyl)-1,2,4-oxadiazol-5-yl)piperidine-4-carboxamide] | + (+ >3 and <5)
8 | COc1ccc(-c2noc(N3CCC(C(=O)NCc4nc5ccccc5[nH]4)CC3)n2)cc1 [Compound 419, N-((1H-benzo[d]imidazol-2-yl)methyl)-1-(3-(4-methoxyphenyl)-1,2,4-oxadiazol-5-yl)piperidine-4-carboxamide] | ++ (++ ≥5 and <6)
9 | COc1ccc(-c2noc(N3CCC(C(=O)NCc4nc5ccccc5o4)CC3)n2)cc1 [Compound 420, N-(benzo[d]oxazol-2-ylmethyl)-1-(3-(4-methoxyphenyl)-1,2,4-oxadiazol-5-yl)piperidine-4-carboxamide] | + (+ >3 and <5)
10 | COc1ccc(-c2noc(N3CCN(C(=O)NCC4CCN(CC5CCCCC5)C4)CC3)n2)cc1 (stereo not shown) [Compound 421, N-((1-(cyclohexylmethyl)pyrrolidin-3-yl)methyl)-4-(3-(4-methoxyphenyl)-1,2,4-oxadiazol-5-yl)piperazine-1-carboxamide] | +++ (+++ ≥6)
11 | COc1ccc(-c2noc(N3CCC(C(=O)NCC4CCN(C[C@H]5CCCN(C)C5)C4)CC3)n2)cc1 (stereo partly drawn) [Compound 422, 1-(3-(4-methoxyphenyl)-1,2,4-oxadiazol-5-yl)-N-((1-(((S)-1-methylpiperidin-3-yl)methyl)pyrrolidin-3-yl)methyl)piperidine-4-carboxamide] | ++ (++ ≥5 and <6)
12 | O=C(NCCCN1CCC(Oc2ccccc2)CC1)N1CCN(c2nc(-c3ccc(OC(F)(F)F)cc3)no2)CC1 [Compound 428, N-(3-(4-phenoxypiperidin-1-yl)propyl)-4-(3-(4-(trifluoromethoxy)phenyl)-1,2,4-oxadiazol-5-yl)piperazine-1-carboxamide] | +++ (+++ ≥6)
13 | O=C(NCCCN1CCC(Cc2ccccc2F)CC1)N1CCN(c2nc(-c3ccc(OC(F)(F)F)cc3)no2)CC1 [Compound 429, N-(3-(4-(2-fluorobenzyl)piperidin-1-yl)propyl)-4-(3-(4-(trifluoromethoxy)phenyl)-1,2,4-oxadiazol-5-yl)piperazine-1-carboxamide] | +++ (+++ ≥6)
14 | O=C(NCCCN1CCC(Cc2ccccn2)CC1)N1CCN(c2nc(-c3ccc(F)cc3)no2)CC1 [Compound 430, 4-(3-(4-fluorophenyl)-1,2,4-oxadiazol-5-yl)-N-(3-(4-(pyridin-2-ylmethyl)piperidin-1-yl)propyl)piperazine-1-carboxamide] | +++ (+++ ≥6)
15 | COc1ccc(-c2noc(N3CCC(C(=O)NC[C@H]4CCN(CC5CCN(C)CC5)C4)CC3)n2)cc1 [Compound 433, (R)-1-(3-(4-methoxyphenyl)-1,2,4-oxadiazol-5-yl)-N-((1-((1-methylpiperidin-4-yl)methyl)pyrrolidin-3-yl)methyl)piperidine-4-carboxamide] | + (+ >3 and <5)
16 | COc1ccc(-c2noc(N3CCC(C(=O)NC[C@@H]4CCN(CC5CCN(C)CC5)C4)CC3)n2)cc1 [Compound 434, (S)-1-(3-(4-methoxyphenyl)-1,2,4-oxadiazol-5-yl)-N-((1-((1-methylpiperidin-4-yl)methyl)pyrrolidin-3-yl)methyl)piperidine-4-carboxamide] | + (+ >3 and <5)
17 | O=C(NCCCN1CCC(Cc2ccccn2)CC1)C1CCN(c2nc(-c3ccc(OC(F)(F)F)cc3)no2)CC1 [Compound 435, N-(3-(4-(pyridin-2-ylmethyl)piperidin-1-yl)propyl)-1-(3-(4-(trifluoromethoxy)phenyl)-1,2,4-oxadiazol-5-yl)piperidine-4-carboxamide] | +++ (+++ ≥6)
18 | O=C(NCCCN1CCC(Cc2ccccn2)CC1)N1CCN(c2nc(-c3ccc(OC(F)(F)F)cc3)no2)CC1 [Compound 436, N-(3-(4-(pyridin-2-ylmethyl)piperidin-1-yl)propyl)-4-(3-(4-(trifluoromethoxy)phenyl)-1,2,4-oxadiazol-5-yl)piperazine-1-carboxamide] | +++ (+++ ≥6)
19 | O=C(NCCCN1CCC(Cc2ccccc2F)CC1)N1CCN(c2nc(-c3ccc(OC(F)F)cc3)no2)CC1 [Compound 438, 4-(3-(4-(difluoromethoxy)phenyl)-1,2,4-oxadiazol-5-yl)-N-(3-(4-(2-fluorobenzyl)piperidin-1-yl)propyl)piperazine-1-carboxamide] | +++ (+++ ≥6)
20 | O=C(NCC1(CN2CCC(Cc3ccccn3)CC2)CC1)N1CCN(c2nc(-c3ccc(OC(F)(F)F)cc3)no2)CC1 [Compound 450, N-((1-((4-(pyridin-2-ylmethyl)piperidin-1-yl)methyl)cyclopropyl)methyl)-4-(3-(4-(trifluoromethoxy)phenyl)-1,2,4-oxadiazol-5-yl)piperazine-1-carboxamide] | ++ (++ ≥5 and <6)
21 | O=C(NCCCN1CCC(Cc2ccccn2)CC1)C1CCN(c2nc(-c3ccc(OC(F)F)cc3)no2)CC1 [Compound 453, 1-(3-(4-(difluoromethoxy)phenyl)-1,2,4-oxadiazol-5-yl)-N-(3-(4-(pyridin-2-ylmethyl)piperidin-1-yl)propyl)piperidine-4-carboxamide] | +++ (+++ ≥6)
22 | O=C(NCCCN1CCC(Cc2ccccn2)CC1)N1CCN(c2nc(-c3ccc(Cl)cc3)no2)CC1 [Compound 458, 4-(3-(4-chlorophenyl)-1,2,4-oxadiazol-5-yl)-N-(3-(4-(pyridin-2-ylmethyl)piperidin-1-yl)propyl)piperazine-1-carboxamide] | +++ (+++ ≥6)
23 | O=C(NCCCN1CCC(Cc2ccccn2)CC1)N1CCN(c2nc(-c3ccc(C(F)(F)F)cc3)no2)CC1 [Compound 459, N-(3-(4-(pyridin-2-ylmethyl)piperidin-1-yl)propyl)-4-(3-(4-(trifluoromethyl)phenyl)-1,2,4-oxadiazol-5-yl)piperazine-1-carboxamide] | +++ (+++ ≥6)
24 | O=C(NCCCN1CCC(Cc2ccccn2)CC1)N1CCN(c2nc(-c3ccc(C(F)F)cc3)no2)CC1 [Compound 460, 4-(3-(4-(difluoromethyl)phenyl)-1,2,4-oxadiazol-5-yl)-N-(3-(4-(pyridin-2-ylmethyl)piperidin-1-yl)propyl)piperazine-1-carboxamide] | +++ (+++ ≥6)
25 | Cc1ccc(CN2CCC(CNC(=O)N3CCN(c4nc(-c5ccc(OCCO)cc5)no4)CC3)C2)cc1 (stereo not shown) [Compound 462, 4-(3-(4-(2-hydroxyethoxy)phenyl)-1,2,4-oxadiazol-5-yl)-N-((1-(4-methylbenzyl)pyrrolidin-3-yl)methyl)piperazine-1-carboxamide] | ++ (++ ≥5 and <6)
26 | Cc1ccc(CN2CCC(CNC(=O)C3CCN(c4nc(-c5ccc(OCCO)cc5)no4)CC3)C2)cc1 (stereo not shown) [Compound 463, 1-(3-(4-(2-hydroxyethoxy)phenyl)-1,2,4-oxadiazol-5-yl)-N-((1-(4-methylbenzyl)pyrrolidin-3-yl)methyl)piperidine-4-carboxamide] | + (+ >3 and <5)
27 | COc1ccc(-c2noc(N3CCC(C(=O)NCC4CCN(C[C@@H]5CCCN(C)C5)C4)CC3)n2)cc1 (stereo partly drawn) [Compound 464, 1-(3-(4-methoxyphenyl)-1,2,4-oxadiazol-5-yl)-N-((1-(((R)-1-methylpiperidin-3-yl)methyl)pyrrolidin-3-yl)methyl)piperidine-4-carboxamide] | + (+ >3 and <5)
28 | COc1ccc(-c2noc(N3CCC(C(=O)NC[C@H]4CCN(C[C@H]5CCCN(C)C5)C4)CC3)n2)cc1 [Compound 465, 1-(3-(4-methoxyphenyl)-1,2,4-oxadiazol-5-yl)-N-(((R)-1-(((S)-1-methylpiperidin-3-yl)methyl)pyrrolidin-3-yl)methyl)piperidine-4-carboxamide] | + (+ >3 and <5)
